Where “and” joins values, the source holds several entries; their conditions need not be identical. Identical values can stand only once. Like-named read-outs stand apart in the source and are kept apart here. Marks after values point to notes of the source that are not given here.
What was measured:
[1] = molecular target: T1, β-lactoglobulin (BLG) (Bos taurus, UniProt P02754); test: Intrinsic fluorescence quenching of BLG by Bai/Chr (Stern–Volmer and double logarithmic equations); format: binding; conditions: for Ksv (Stern–Volmer quenching constant) / Kd: pH 6.8; for Kd: read-out: Ka (binding constant) (converted)
T1 construct: purchased Sigma–Aldrich Co. (St. Louis, MO, USA)
T1 sequence (P02754 17-178): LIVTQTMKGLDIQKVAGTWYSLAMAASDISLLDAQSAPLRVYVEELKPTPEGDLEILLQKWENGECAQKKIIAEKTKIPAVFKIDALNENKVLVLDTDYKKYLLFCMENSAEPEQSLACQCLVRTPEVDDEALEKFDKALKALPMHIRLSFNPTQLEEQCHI
Method: (§1) Intrinsic fluorescence spectroscopic test was measured on a F–7000 spectrophotometer (Hitachi, Japan) equipped with temperature controller according to the method described in the previous study. Briefly, 3 mL solution of BLG (20.0 µM) was titrated by continuously adding different amounts of Bai or Chr (0–20.0 µM). The fluorescence spectra were recorded at different temperatures (298 K, 304 K, and 310 K) with the excitation wavelength of 280 nm and the excitation and emission slit set at 2.5 nm. Moreover, synchronous fluorescence spectra were conducted by setting the wavelength intervals (λem–λex) at 15 nm and 60 nm, respectively. The 3D fluorescence spectra (molar ratios of BLG to Bai/Chr were 1:0 and 1:1) were recorded at excitation and emission wavelength range of 200−600 nm. All the fluorescence values were corrected to eliminate the internal filtering effect according to the previous method, and were used to evaluate the quenching mechanism of Bai/Chr binding to BLG by using the following equation [21]:(1) F0/F=1+Kqτ0[Q]=1+KSV[Q] where F and F0 are the fluorescence intensities of fluorophore with and without quencher; Ksv denotes the Stern–Volmer quenching constant; Kq is the quenching rate constant (Kq = Ksv/τ0), and τ0 is the average lifetime of the biomolecule in the absence of a quencher (τ0 = 10^−8 s); [Q] represents the experimental concentration of Bai/Chr.
For static fluorescence quenching mechanism, the binding constant (Ka) and the number of binding sites (n) could be determined by the following equation [22]:(2) logF0−F/F=nlogKa−nlog1/[Qt]−(F0−F)[Pt]/F0 where [Qt] and [Pt] are the concentrations of Bai/Chr and BLG, respectively.

[2] = molecular target: T1, β-lactoglobulin (BLG); test: Emulsifying ability and emulsifying stability of BLG
Method: Emulsifying ability (EA) and emulsifying stability (ES) were investigated by the method of Xiong et al. with slight modification. BLG solution (1 mg mL^−1) was added to Bai/Chr to form the solutions with different ratios of BLG to Bai/Chr (40:1, 30:1, 20:1, 10:1), and then soybean oil was added to form BLG solution containing 10% (v/v) oil. The emulsion was fully dispersed for 2 min at a rate of 7000 r min^−1 and repeated for three times. At 0 and 10 min, 30 µL of emulsion was extracted from the bottom of the sample and immediately added to 3 mL of 0.1% SDS solution. The absorbance of the sample was measured at 500 nm and recorded as A0 and A10, respectively. The EA (m^2 g^−1) and ES (min) were calculated according to the following equations:(11) EA (m^2 g^−1)=2×2.303/c×Φ×L×10^4×A0×D (12) ES (min)=A0/A0−A10×10 where c is the weight of the BLG per unit volume (g mL^−1), Φ is the volume fraction of the oil phase, L is the length of light path, and D is the dilution factor, D = 100.

[3] = molecular target: T1, β-lactoglobulin (BLG); test: Thermodynamic parameters of Bai/Chr–BLG binding (Van't Hoff equation)
Method: In order to determine the primary forces between BLG and Bai/Chr, thermodynamic parameters were calculated using the following equations [23]:(3) logKa=−ΔH°/2.303RT+ΔS°/2.303R (4) ΔG°=ΔH°−TΔS° where R and T represent gas constant (8.314 J mol^−1 K^−1) and temperature (298, 304, and 310 K), respectively. Enthalpy change (ΔH°) and entropy change (ΔS°) of interaction between ligands and biomolecules are the main criteria for evaluating acting force, and free energy (ΔG°) is the main criteria for estimating the spontaneity of interaction.

[4] = molecular target: T1, β-lactoglobulin (BLG); test: CD spectra, secondary structure contents of BLG
Method: The CD spectra in the range of 200–250 nm were obtained from a CD spectrometer (MOS 450, Bio–Logic, Claix, France) equipped with 1.0 mm path length cuvette under the constant nitrogen flush. The solutions were prepared with molar ratios of Bai or Chr to BLG of 0:1, 1:1, and 2:1, respectively. The contents of secondary structure of BLG were determined based on our previously reported study.

[5] = molecular target: T1, β-lactoglobulin (BLG); test: Protein surface hydrophobicity (PSH) of BLG with ANS probe
Method: PSH of BLG in the presence or absence of Bai or Chr was determined using ANS as a fluorescent probe. In the BLG solution (20.0 µM) alone or Bai/Chr–BLG mixture the ANS solution (5 mM) was continuously added until the fluorescence intensity of the mixture remained constant. The fluorescence intensity of the sample was recorded in the wavelength range of 400–600 nm upon 380 nm excitation. The PSH values were calculated by the following equations [26]:(5) [ANS]bound=F/B (6) [ANS]free=[ANS]total−[ANS]bound (7) F/[ANS]free=−F/Kdapp−Fmax/Kdapp (8) PSH=Fmax/[BLG]Kdapp where [ANS]free and [ANS]bound are the concentration of free and bound ANS, respectively. Kdapp is the apparent dissociation constant of ANS, Fmax is the maximum fluorescence intensity at saturating ANS concentration and B is the proportionality coefficient.

[6] = molecular target: T1, β-lactoglobulin (BLG); test: Foaming ability and foaming stability of BLG
Method: Foaming ability (FA) and foaming stability (FS) were measured as described by Wang et al. with some modifications. A certain amount of BLG solution (1.0 mg mL^−1) was added to a 100 mL cylinder, and Bai or Chr was added to form solutions with different ratios of BLG to Bai or Chr (40:1, 30:1, 20:1, 10:1). The initial height H0 of the foam was recorded. The foam was then sheared at 10,000 rpm in a high-speed dispersion machine for 1 min and the height of the foam was recorded as H1. The height of the foam was recorded as H2 30 min later. The FA (%) and FS (%) were calculated according to the following equations:(9) FA (%)=H1−H0/H0×100 (10) FS (%)=H2−H0/H1−H0×100

[7] = molecular target: T1, β-lactoglobulin (BLG); test: Three-dimensional fluorescence spectra of BLG with Bai/Chr; conditions: c(BLG) = 20.0 µM, c(Bai/Chr) = 20.0 μM
Method: as §1

[8] = molecular target: T1, β-lactoglobulin (BLG); test: Free sulfhydryl (SH) content of BLG (DTNB); conditions: Bai/Chr 0 to 20.0 µM, BLG 20.0 µM
Method: The content of free SH was determined by spectrophotometry according to the report by Takić et al. with minor modifications. Briefly, Bai/Chr concentrations were varied from 0 to 20.0 µM, and BLG was kept at 20.0 µM. Then the two solutions were incubated with 10.0 mM DTNB in 50 mM PBS (pH 6.8) for 30 min at room temperature. The absorbance of the sample at 412 nm was recorded and the molar extinction coefficient (14,360 M^−1 cm^−1) was obtained from the standard curve of L-cysteine, which was used to calculate the number of total sulfhydryl groups per gram of protein.

[9] = molar ratio of Bai/Chr to BLG 1:1
[10] = molar ratio of Bai/Chr to BLG 2:1
[11] = molar ratio of Bai/Chr to BLG 2:1, listed as Bai–BLG

O=c1cc(-c2ccccc2)oc2cc(O)c(O)c(O)c12 [Bai, baicalein]
n (number of binding sites) ([1]; T = 298 K): 1.03 ± 0.03 | Ksv (Stern–Volmer quenching constant) ([1]; T = 298 K): 5.75 ± 0.01 ^a ×10^4 L mol^−1 | Kd ([1]; T = 298 K): 3.6 µM | n (number of binding sites) ([1]; T = 304 K): 1.23 ± 0.02 | Ksv (Stern–Volmer quenching constant) ([1]; T = 304 K): 4.76 ± 0.03 ^b ×10^4 L mol^−1 | Kd ([1]; T = 304 K): 3.75 µM | n (number of binding sites) ([1]; T = 310 K): 1.31 ± 0.03 | Ksv (Stern–Volmer quenching constant) ([1]; T = 310 K): 4.47 ± 0.06 ^c ×10^4 L mol^−1 | Kd ([1]; T = 310 K): 3.92 µM | BLG fluorescence quenching ([1]; after 10 times titration, 298 K, c(BLG) = 20 µM): 63.2% | n (number of binding sites) ([1]; general statement for the three temperatures): approximately 1 | effect on emulsifying stability (ES) of BLG ([2]; BLG to Bai/Chr 40:1 to 10:1): promoted the enhancement of ES | effect on emulsifying ability (EA) of BLG ([2]; with the increase of Bai or Chr concentration (BLG to Bai/Chr 40:1 to 10:1)): slightly improved | ΔG° (free energy) ([3]; T = 298 K): -7.421 kcal/mol | ΔG° (free energy) ([3]; T = 304 K): -7.543 kcal/mol | ΔG° (free energy) ([3]; T = 310 K): -7.665 kcal/mol | ΔH° (enthalpy change) ([3]; from Ka at 298, 304 and 310 K): -1.34 kcal/mol | ΔS° (entropy change) ([3]; from Ka at 298, 304 and 310 K): 85.44 J mol^−1 K^−1 | Random Coil content of BLG [4, 9]: 26.47 ± 0.41 ^b % | α-Helix content of BLG [4, 9]: 14.12 ± 0.70 ^c % | β-Sheet content of BLG [4, 9]: 36.25 ± 0.25 ^b % | β-Turn content of BLG [4, 9]: 23.16 ± 0.12 ^a % | Random Coil content of BLG [4, 10]: 25.26 ± 033 ^c % | β-Turn content of BLG [4, 10]: 24.77 ± 0.54 ^b % | α-Helix content of BLG [4, 11]: 15.85% and 15.85 ± 0.93 ^b % | β-Sheet content of BLG [4, 11]: 34.12% and 34.12 ± 0.34 ^d % | F max (maximum fluorescence intensity at saturating ANS) ([5]; molar ratio 1:1): 154.31 ± 3.09 ^ab | PSH (protein surface hydrophobicity) ([5]; molar ratio 1:1): 260.66 ± 5.21 ^b | Reduction Rate of PSH ([5]; molar ratio 1:1, versus BLG alone): 20.87 ± 0.42 ^d % | F max (maximum fluorescence intensity at saturating ANS) ([5]; molar ratio 2:1): 120.27 ± 2.41 ^c | PSH (protein surface hydrophobicity) ([5]; molar ratio 2:1): 200.45 ± 4.01 ^d | Reduction Rate of PSH ([5]; molar ratio 2:1, versus BLG alone): 39.15 ± 0.78 ^c % | increase of foaming stability (FS) of BLG ([6]; compared with BLG alone, molar ratio of BLG to Bai/Chr 10:1): 80.64% | increase of foaming ability (FA) of BLG ([6]; compared with FA of free BLG (25.2%), molar ratios of BLG to Bai/Chr changed from 40:1 to 10:1): 18.08% | fluorescence intensity of Peak 2 (3D fluorescence) ([7]; free BLG 430.6): 206.8 | fluorescence intensity of Peak 1 (3D fluorescence) ([7]; free BLG 522.1): 395.4 | effect on contents of free SH group of BLG [8]: gradually weakened
